According to ChEMBL document CHEMBL4680147, “Discovery of 6'-chloro-N-methyl-5'-(phenylsulfonamido)-[3,3'-bipyridine]-5-carboxamide (CHMFL-PI4K-127) as a novel Plasmodium falciparum PI(4)K inhibitor with potent antimalarial activity against both blood and liver stages of Plasmodium” (Eur J Med Chem, 2020):
Active and inactive are the calls of the source. The calls are words filed in the database; no cut-off is given here.

Assays:
Plasmodium berghei [1] = test: (§1) Antimalarial activity against blood stage luciferase-expressing Plasmodium berghei sporozoites infected in BALB/c mouse assessed as suppression of parasitemia at 1 to 15 mg/kg, po treated for 2 hrs followed by parasite infection and measured upto 8 days post-infection by luciferase based real-time imaging analysis; type: functional, organism-based; conditions: dose 1-15 mg/kg, time 194.0 hrs
Plasmodium falciparum [2] = test: Antimalarial activity against mefloquine/chloroquine/pyrimethamine resistant Plasmodium falciparum Dd2 infected in human O+ erythrocytes incubated for 72 hrs by SYBR Green 1 dye based fluorescence assay; type: functional, organism-based; conditions: Dd2, Erythrocyte
[3] = Inhibition of recombinant His-tagged Plasmodium falciparum 3D7 PI4K expressed in baculovirus infected Sf9 cells using PI:PS as substrate incubated for 1 hr in presence of ATP by ADP-Glo kinase assay
[4] = target: Phosphatidylinositol 4,5-bisphosphate 3-kinase catalytic subunit beta isoform (Homo sapiens, UniProt P42338); test: Inhibition of human PI3Kbeta by ADP-Glo kinase assay
Chain of Phosphatidylinositol 4,5-bisphosphate 3-kinase catalytic subunit beta isoform (P42338 whole entry, canonical isoform): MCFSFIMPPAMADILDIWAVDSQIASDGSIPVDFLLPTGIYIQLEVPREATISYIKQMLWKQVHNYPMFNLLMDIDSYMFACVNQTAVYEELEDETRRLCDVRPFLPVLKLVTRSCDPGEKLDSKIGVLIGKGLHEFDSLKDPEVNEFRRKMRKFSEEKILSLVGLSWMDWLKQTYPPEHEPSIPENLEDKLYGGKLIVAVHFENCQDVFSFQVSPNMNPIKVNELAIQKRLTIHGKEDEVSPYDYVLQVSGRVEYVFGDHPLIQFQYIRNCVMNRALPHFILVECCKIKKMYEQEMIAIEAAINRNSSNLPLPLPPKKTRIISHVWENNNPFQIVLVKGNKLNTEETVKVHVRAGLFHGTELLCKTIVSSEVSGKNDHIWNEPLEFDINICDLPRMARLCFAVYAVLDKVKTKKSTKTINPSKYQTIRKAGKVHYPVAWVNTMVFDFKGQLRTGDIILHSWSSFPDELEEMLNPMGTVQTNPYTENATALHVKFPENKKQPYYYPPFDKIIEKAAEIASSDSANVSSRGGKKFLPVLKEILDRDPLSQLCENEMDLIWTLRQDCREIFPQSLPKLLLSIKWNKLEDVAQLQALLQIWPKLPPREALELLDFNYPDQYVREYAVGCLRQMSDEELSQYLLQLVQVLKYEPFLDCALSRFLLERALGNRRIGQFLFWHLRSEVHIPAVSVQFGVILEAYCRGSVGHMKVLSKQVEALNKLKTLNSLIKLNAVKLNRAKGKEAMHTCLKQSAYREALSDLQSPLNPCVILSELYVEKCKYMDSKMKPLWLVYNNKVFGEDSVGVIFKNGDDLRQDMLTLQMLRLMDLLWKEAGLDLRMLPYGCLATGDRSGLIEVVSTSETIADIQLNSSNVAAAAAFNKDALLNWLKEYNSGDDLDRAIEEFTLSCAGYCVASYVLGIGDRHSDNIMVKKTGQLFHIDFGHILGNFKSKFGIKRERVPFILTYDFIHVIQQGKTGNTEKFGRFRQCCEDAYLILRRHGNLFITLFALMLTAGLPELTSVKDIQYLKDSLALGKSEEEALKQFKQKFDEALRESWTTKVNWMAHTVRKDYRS

[5] = target: Phosphatidylinositol 4,5-bisphosphate 3-kinase catalytic subunit gamma isoform (Homo sapiens, UniProt P48736); test: Inhibition of human PI3Kgamma by ADP-Glo kinase assay
Chain of Phosphatidylinositol 4,5-bisphosphate 3-kinase catalytic subunit gamma isoform (P48736 whole entry, the tested form may be a part, canonical isoform): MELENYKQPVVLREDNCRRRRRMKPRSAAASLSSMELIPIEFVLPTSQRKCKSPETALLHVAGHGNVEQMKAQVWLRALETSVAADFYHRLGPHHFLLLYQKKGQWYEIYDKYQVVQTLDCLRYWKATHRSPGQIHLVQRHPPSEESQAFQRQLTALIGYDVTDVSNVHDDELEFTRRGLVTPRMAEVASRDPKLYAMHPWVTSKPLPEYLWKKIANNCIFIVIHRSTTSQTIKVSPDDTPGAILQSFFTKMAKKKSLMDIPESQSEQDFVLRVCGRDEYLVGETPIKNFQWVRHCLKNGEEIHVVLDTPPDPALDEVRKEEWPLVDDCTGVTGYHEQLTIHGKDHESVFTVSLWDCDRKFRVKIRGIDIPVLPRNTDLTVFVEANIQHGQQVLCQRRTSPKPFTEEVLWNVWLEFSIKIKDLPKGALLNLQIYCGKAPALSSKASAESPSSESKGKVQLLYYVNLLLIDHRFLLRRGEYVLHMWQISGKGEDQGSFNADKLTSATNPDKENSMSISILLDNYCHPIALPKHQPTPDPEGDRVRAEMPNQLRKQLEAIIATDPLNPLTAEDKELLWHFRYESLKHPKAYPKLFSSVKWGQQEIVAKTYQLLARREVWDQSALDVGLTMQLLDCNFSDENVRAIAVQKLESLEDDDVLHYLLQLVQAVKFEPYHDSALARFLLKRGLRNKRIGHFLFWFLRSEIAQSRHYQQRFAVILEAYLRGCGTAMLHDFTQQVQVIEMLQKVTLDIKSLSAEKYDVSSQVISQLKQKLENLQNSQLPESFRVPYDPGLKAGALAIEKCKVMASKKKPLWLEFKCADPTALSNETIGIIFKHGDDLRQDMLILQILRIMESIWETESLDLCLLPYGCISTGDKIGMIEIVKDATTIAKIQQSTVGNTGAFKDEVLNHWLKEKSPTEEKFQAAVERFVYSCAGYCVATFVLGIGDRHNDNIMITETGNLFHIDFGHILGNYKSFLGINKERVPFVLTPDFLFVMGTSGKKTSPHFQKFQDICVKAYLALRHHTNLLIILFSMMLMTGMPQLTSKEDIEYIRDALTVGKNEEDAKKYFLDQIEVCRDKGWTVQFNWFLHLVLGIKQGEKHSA

[6] = target: Phosphatidylinositol 4-phosphate 3-kinase C2 domain-containing subunit beta (Homo sapiens, UniProt O00750); test: Inhibition of human PIK3C2beta by ADP-Glo kinase assay
[7] = target: Phosphatidylinositol 4-kinase alpha (Homo sapiens, UniProt P42356); test: Inhibition of human PI4K3alpha by ADP-Glo kinase assay
Chain of Phosphatidylinositol 4-kinase alpha (P42356 whole entry): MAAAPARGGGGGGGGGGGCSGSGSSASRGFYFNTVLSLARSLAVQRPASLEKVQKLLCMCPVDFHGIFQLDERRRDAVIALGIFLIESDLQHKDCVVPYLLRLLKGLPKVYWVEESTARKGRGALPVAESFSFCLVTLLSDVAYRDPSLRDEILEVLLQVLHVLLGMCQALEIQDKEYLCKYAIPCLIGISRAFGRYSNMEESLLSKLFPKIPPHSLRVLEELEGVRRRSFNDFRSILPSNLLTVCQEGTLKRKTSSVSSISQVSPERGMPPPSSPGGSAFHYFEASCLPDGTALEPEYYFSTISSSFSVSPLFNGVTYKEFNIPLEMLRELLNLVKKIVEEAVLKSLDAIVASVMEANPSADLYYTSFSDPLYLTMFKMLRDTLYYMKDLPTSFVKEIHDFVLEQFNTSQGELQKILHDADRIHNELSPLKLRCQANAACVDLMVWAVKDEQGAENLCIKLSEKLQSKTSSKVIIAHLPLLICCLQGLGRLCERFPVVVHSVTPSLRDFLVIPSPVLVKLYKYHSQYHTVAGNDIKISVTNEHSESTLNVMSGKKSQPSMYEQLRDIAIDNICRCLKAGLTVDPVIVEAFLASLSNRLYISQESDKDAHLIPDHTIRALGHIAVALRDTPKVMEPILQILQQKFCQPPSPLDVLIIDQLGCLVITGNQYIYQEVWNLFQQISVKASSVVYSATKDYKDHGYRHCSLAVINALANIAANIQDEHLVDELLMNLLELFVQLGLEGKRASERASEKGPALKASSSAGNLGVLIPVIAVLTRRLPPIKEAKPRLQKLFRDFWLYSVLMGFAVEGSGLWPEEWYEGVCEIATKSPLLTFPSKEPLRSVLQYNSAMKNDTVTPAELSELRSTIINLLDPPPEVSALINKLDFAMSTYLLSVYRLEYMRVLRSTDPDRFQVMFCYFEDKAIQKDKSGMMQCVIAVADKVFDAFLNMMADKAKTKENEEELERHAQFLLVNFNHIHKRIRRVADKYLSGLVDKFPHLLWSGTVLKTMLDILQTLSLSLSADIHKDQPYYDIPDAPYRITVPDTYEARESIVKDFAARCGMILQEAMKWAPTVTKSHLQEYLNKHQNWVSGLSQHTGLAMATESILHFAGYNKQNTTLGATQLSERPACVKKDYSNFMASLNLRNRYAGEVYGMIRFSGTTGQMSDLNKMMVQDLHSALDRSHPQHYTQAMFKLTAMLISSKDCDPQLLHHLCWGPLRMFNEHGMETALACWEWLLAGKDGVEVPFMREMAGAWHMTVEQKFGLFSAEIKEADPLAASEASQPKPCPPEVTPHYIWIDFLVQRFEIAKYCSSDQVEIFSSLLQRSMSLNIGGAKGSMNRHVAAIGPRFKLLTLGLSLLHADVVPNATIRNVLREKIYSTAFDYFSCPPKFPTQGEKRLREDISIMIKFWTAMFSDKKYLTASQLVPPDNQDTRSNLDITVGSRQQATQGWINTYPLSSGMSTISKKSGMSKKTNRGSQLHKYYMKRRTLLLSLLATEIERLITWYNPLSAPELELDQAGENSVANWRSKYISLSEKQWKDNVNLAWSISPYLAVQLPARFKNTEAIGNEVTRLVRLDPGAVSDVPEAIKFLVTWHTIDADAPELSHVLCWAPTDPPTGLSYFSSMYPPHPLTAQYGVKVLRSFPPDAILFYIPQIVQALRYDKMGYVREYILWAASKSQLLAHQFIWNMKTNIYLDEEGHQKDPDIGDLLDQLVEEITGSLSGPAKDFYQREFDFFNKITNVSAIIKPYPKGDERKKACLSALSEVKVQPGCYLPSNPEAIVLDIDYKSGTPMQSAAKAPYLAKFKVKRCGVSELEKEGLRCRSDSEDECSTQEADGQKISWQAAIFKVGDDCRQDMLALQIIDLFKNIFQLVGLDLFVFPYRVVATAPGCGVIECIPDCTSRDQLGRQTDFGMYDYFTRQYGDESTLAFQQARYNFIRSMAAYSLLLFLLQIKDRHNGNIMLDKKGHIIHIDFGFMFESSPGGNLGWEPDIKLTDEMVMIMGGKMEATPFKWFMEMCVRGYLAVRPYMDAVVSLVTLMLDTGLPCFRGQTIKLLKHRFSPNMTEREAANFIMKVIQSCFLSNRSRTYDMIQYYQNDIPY

[8] = target: Phosphatidylinositol 4-kinase beta (Homo sapiens, UniProt Q9UBF8); test: Inhibition of human PI4K3beta by ADP-Glo kinase assay
Chain of Phosphatidylinositol 4-kinase beta (Q9UBF8 whole entry): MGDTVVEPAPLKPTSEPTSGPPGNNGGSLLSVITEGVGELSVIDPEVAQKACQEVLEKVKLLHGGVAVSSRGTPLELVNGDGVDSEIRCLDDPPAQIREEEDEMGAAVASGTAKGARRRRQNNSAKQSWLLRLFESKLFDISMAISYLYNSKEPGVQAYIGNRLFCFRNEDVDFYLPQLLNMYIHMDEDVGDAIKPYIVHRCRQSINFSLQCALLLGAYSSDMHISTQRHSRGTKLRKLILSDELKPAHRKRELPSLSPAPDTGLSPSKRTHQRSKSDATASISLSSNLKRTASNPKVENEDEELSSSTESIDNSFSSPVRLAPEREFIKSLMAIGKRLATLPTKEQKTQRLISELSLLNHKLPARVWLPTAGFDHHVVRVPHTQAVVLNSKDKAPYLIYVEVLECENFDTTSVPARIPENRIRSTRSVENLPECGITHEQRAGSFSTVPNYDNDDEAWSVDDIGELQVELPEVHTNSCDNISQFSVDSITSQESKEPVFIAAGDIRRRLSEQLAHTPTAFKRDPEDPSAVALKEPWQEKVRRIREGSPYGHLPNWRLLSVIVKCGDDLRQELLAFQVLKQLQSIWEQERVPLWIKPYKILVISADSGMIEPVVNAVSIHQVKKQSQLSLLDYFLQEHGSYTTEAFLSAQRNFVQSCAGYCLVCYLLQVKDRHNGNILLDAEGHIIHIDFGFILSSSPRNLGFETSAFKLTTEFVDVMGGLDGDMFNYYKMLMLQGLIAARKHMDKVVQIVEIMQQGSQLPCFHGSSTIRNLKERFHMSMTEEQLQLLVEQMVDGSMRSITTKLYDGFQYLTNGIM

[9] = Selectivity index, ratio of IC50 for human PI3Kgamma to IC50 for recombinant His-tagged Plasmodium falciparum 3D7 PI4K expressed in baculovirus infected Sf9 cells
[10] = Selectivity index, ratio of IC50 for human PI4K3alpha to IC50 for recombinant His-tagged Plasmodium falciparum 3D7 PI4K expressed in baculovirus infected Sf9 cells
[11] = Selectivity index, ratio of IC50 for human PI3Kbeta to IC50 for recombinant His-tagged Plasmodium falciparum 3D7 PI4K expressed in baculovirus infected Sf9 cells
[12] = Selectivity index, ratio of IC50 for human VPS34 to IC50 for recombinant His-tagged Plasmodium falciparum 3D7 PI4K expressed in baculovirus infected Sf9 cells
Plasmodium falciparum [13] = test: Antimalarial activity against artemisinin resistant Plasmodium falciparum 803 infected in human O+ erythrocytes incubated for 72 hrs by SYBR Green 1 dye based fluorescence assay; type: functional, organism-based; conditions: Plasmodium falciparum, 803, Erythrocyte
Plasmodium falciparum [14] = test: Antimalarial activity against artemisinin and piperaquine-phosphate resistant Plasmodium falciparum 6320 infected in human O+ erythrocytes incubated for 72 hrs by SYBR Green 1 dye based fluorescence assay; type: functional, organism-based; conditions: Plasmodium falciparum, 6320, Erythrocyte
Plasmodium falciparum [15] = test: Antimalarial activity against Plasmodium falciparum GB4 infected in human O+ erythrocytes incubated for 72 hrs by SYBR Green 1 dye based fluorescence assay; type: functional, organism-based; conditions: GB4, Erythrocyte
Plasmodium falciparum [16] = test: Antimalarial activity against chloroquine resistant Plasmodium falciparum FAB9 infected in human O+ erythrocytes incubated for 72 hrs by SYBR Green 1 dye based fluorescence assay; type: functional, organism-based; conditions: FAB9, Erythrocyte
Plasmodium falciparum [17] = test: Antimalarial activity against chloroquine resistant Plasmodium falciparum D10 infected in human O+ erythrocytes incubated for 72 hrs by SYBR Green 1 dye based fluorescence assay; type: functional, organism-based; conditions: D10, Erythrocyte
Plasmodium falciparum [18] = test: Antimalarial activity against pyrimethamine/chloroquine resistant Plasmodium falciparum CP286 infected in human O+ erythrocytes incubated for 72 hrs by SYBR Green 1 dye based fluorescence assay; type: functional, organism-based; conditions: CP286, Erythrocyte
[19] = AUC(0 to t) in Sprague-Dawley rat at 1 mg/kg, iv; type: ADME, organism-based; set-up: dose 1 mg/kg; conditions: in vivo
[20] = AUC(0 to t) in Sprague-Dawley rat at 10 mg/kg, po; type: ADME, organism-based; set-up: dose 10 mg/kg; conditions: in vivo
[21] = AUC(0 to infinity) in Sprague-Dawley rat at 10 mg/kg, po; type: ADME, organism-based; set-up: time infinity, route oral, dose 10 mg/kg; conditions: in vivo
[22] = Cmax in Sprague-Dawley rat at 10 mg/kg, po; type: ADME, organism-based; set-up: route oral, dose 10 mg/kg; conditions: in vivo
[23] = Cmax in mouse at 10 mg/kg, po; type: ADME, organism-based; set-up: route oral, dose 10 mg/kg; conditions: in vivo
[24] = Apparent volume of distribution in mouse at 1 mg/kg, iv; type: ADME, organism-based; conditions: in vivo, read-out: Vz
[25] = Apparent volume of distribution in mouse at 10 mg/kg, po; type: ADME, organism-based; conditions: in vivo
[26] = Apparent clearance in Sprague-Dawley rat at 10 mg/kg, po; type: ADME, organism-based; conditions: in vivo, read-out: CL(app) (converted)
[27] = Apparent clearance in mouse at 1 mg/kg, iv; type: ADME, organism-based; conditions: in vivo, read-out: CL(app) (converted)
[28] = Apparent clearance in mouse at 10 mg/kg, po; type: ADME, organism-based; conditions: in vivo, read-out: CL(app) (converted)
[29] = Tmax in Sprague-Dawley rat at 1 mg/kg, iv; type: ADME, organism-based; conditions: in vivo
[30] = Tmax in Sprague-Dawley rat at 10 mg/kg, po; type: ADME, organism-based; conditions: in vivo
[31] = Tmax in mouse at 1 mg/kg, iv; type: ADME, organism-based; conditions: in vivo
[32] = Tmax in mouse at 10 mg/kg, po; type: ADME, organism-based; conditions: in vivo
[33] = Half life in Sprague-Dawley rat at 1 mg/kg, iv; type: ADME, organism-based; conditions: in vivo
[34] = Half life in Sprague-Dawley rat at 10 mg/kg, po; type: ADME, organism-based; conditions: in vivo
[35] = Half life in mouse at 1 mg/kg, iv; type: ADME, organism-based; conditions: in vivo
[36] = Half life in mouse at 10 mg/kg, po; type: ADME, organism-based; conditions: in vivo
[37] = Oral bioavailability in Sprague-Dawley rat at 10 mg/kg; type: ADME, organism-based; conditions: in vivo
Plasmodium yoelii [38] = test: Antimalarial activity against blood stage Plasmodium yoelii infected in BALB/c mouse assessed as suppression of parasitemia administered once daily via oral gavage for 7 consecutive days starting from 1 day post-infection and observed for 20 days by Giemsa-staining based microscopic analysis; type: functional, organism-based; conditions: dose 60-80 mg/kg/day, time 20.0 day
Plasmodium yoelii [39] = test: (§2) Antimalarial activity against blood stage Plasmodium yoelii infected in BALB/c mouse assessed as suppression of parasitemia at 60 mg/kg/day, po administered for 7 consecutive days starting from 1 day post-infection and observed for 20 days by Giemsa-staining based microscopic analysis; type: functional, organism-based; conditions: time 20.0 day
Plasmodium yoelii [40] = test: Antimalarial activity against blood stage Plasmodium yoelii infected in BALB/c mouse assessed as suppression of parasitemia at 80 mg/kg/day, po administered for 7 consecutive days starting from 1 day post-infection and observed for 20 days by Giemsa-staining based microscopic analysis; type: functional; conditions: time 20 day
Plasmodium berghei [41] = test: as §1, with “liver” for “blood”, “1” for “1 to 15”, “196 hrs” for “8 days”, “based in vivo” for “based”; type: functional; conditions: time 198 hrs
[42] = Selectivity index, ratio of EC50 for antimalarial activity against Plasmodium falciparum harboring PI4K Y1342I/T1360A mutant infected in human O+ erythrocytes to EC50 for antimalarial activity against Plasmodium falciparum harboring PI4K Y1342I mutant infected in human O+ erythrocytes; type: functional
[43] = Selectivity index, ratio of EC50 for antimalarial activity against wild type Plasmodium falciparum infected in human O+ erythrocytes to EC50 for antimalarial activity against Plasmodium falciparum harboring PI4K Y1342I mutant infected in human O+ erythrocytes; type: functional, Erythrocyte
Plasmodium yoelii [44] = test: as §2, with “measured after cessation of drug treatment” for “observed for 20 days”; type: functional, organism-based; conditions: time 7.0 day

For `CNC(=O)c1cncc(-c2cnc(Cl)c(NS(=O)(=O)c3ccccc3)c2)c1`, the Activity (Plasmodium berghei [1]) was “Active”, the EC50 (Plasmodium falciparum [2]) was 30.3 nM and the IC50 [3] was 0.9 nM. The IC50 [4] was 392 nM, the IC50 [5] was 324 nM and the IC50 [6] was > 10000 nM. For the same compound, the IC50 [7] was 165 nM, the IC50 [8] was 433 nM and the Ratio IC50 [9] was 100. For the same compound, the Ratio IC50 [10] was 100, the Ratio IC50 [11] was 400 and the Ratio IC50 [12] was 400. The EC50 (Plasmodium falciparum [13]) was 30.9 nM, the EC50 (Plasmodium falciparum [14]) was 24.7 nM and the EC50 (Plasmodium falciparum [15]) was 47.8 nM. It also gave an EC50 (Plasmodium falciparum [16]) of 23.6 nM, an EC50 (Plasmodium falciparum [17]) of 28 nM and an EC50 (Plasmodium falciparum [18]) of 24.1 nM. It also gave an AUC(0-t) [19] of 2160 ng·h/mL, an AUC(0-t) [20] of 19300 ng·h/mL and an AUC(0-inf) [21] of 19300 ng·h/mL. The Cmax [22] was 4340 ng/mL, the Cmax [23] was 1540 ng/mL and the Vd [24] was 12.1 L/kg. The Vz [25] was 20.2 L/kg, the CL/F [26] was 8.33 mL/min/kg and the clearance [27] was 51.7 mL/min/kg. It also gave a CL/F [28] of 65 mL/min/kg, a Tmax [29] of 1.2 min and a Tmax [30] of 0.83 h. For the same compound, the Tmax [31] was 1.8 min, the Tmax [32] was 0.19 h and the half-life [33] was 3.5 h. It also gave a half-life [34] of 2.9 h, a half-life [35] of 2.7 h and a half-life [36] of 3.6 h. For the same compound, the bioavailability [37] was 89%, the Activity (Plasmodium yoelii [38]) was “Dose dependent effect” and the Activity (Plasmodium yoelii [39]) was “Active”. The Activity (Plasmodium yoelii [40]) was 100%, the Activity (Plasmodium berghei [41]) was 100% and the “Ratio EC50” value [42] was 24. The “Ratio EC50” value [43] was 2 and the Activity (Plasmodium yoelii [44]) was “inactive”.
